Reference: patent publication US10519152B2, “Compounds and their use in treating cancer” (AstraZeneca AB, priority 2017, dated 2019)

biological target: T1, recombinant human Estrogen Receptor alpha ligand binding domain, residues 307-554 (ER alpha-LBD (GST)) (Homo sapiens, UniProt P03372); experiment: ERα binding assay (LanthaScreen TR-FRET competition); details: TR-FRET competition with Fluormone ES2 tracer, 4 hours at room temperature; single experiment or average of two or more
T1 construct: made in house
T1 sequence (P03372 307-554): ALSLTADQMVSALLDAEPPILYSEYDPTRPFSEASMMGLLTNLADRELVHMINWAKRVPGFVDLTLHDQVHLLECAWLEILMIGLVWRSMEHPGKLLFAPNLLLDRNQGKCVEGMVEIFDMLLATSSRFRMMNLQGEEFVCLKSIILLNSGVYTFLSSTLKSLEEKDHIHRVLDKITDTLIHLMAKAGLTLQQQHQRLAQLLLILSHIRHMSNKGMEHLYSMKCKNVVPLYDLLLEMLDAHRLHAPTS

Cc1ncsc1-c1ccc(CNC(=O)[C@@H]2C[C@@H](O)CN2C(=O)[C@@H](NC(=O)COCCOCCCCCOc2cc(F)c([C@@H]3c4[nH]c5ccccc5c4C[C@@H](C)N3CC(F)(F)F)c(F)c2)C(C)(C)C)cc1 [Example 139, (2S,4R)-1-((S)-2-(2-(2-((5-(3,5-Difluoro-4-((1R,3R)-3-methyl-2-(2,2,2-trifluoroethyl)-2,3,4,9-tetrahydro-1H-pyrido[3,4-b]indol-1-yl)phenoxy)pentyl)oxy)ethoxy)acetamido)-3,3-dimethylbutanoyl)-4-hydroxy-N-(4-(4-methylthiazol-5-yl)benzyl)pyrrolidine-2-carboxamide] and Cc1ncsc1-c1ccc([C@H](C)NC(=O)[C@@H]2C[C@@H](O)CN2C(=O)[C@@H](NC(=O)COCCOCCCCCOc2cc(F)c([C@@H]3c4[nH]c5ccccc5c4C[C@@H](C)N3CC(F)(F)F)c(F)c2)C(C)(C)C)cc1 [Example 140, (2S,4R)-1-((S)-2-(2-(2-((5-(3,5-Difluoro-4-((1R,3R)-3-methyl-2-(2,2,2-trifluoroethyl)-2,3,4,9-tetrahydro-1H-pyrido[3,4-b]indol-1-yl)phenoxy)pentyl)oxy)ethoxy)acetamido)-3,3-dimethylbutanoyl)-4-hydroxy-N—((S)-1-(4-(4-methylthiazol-5-yl)phenyl)ethyl)pyrrolidine-2-carboxamide] are the same in IC50: 0.5 nM for the first, 0.5 nM for the second.

Cc1ncsc1-c1ccc(CNC(=O)[C@@H]2C[C@@H](O)CN2C(=O)[C@@H](NC(=O)CCCc2ccc(COc3cc(F)c([C@@H]4c5[nH]c6ccccc6c5C[C@@H](C)N4CC(C)(C)F)c(F)c3)nc2)C(C)(C)C)cc1 [Example 141, (2S,4R)-1-((S)-2-(4-(6-((3,5-Difluoro-4-((1R,3R)-2-(2-fluoro-2-methylpropyl)-3-methyl-2,3,4,9-tetrahydro-1H-pyrido[3,4-b]indol-1-yl)phenoxy)methyl)pyridin-3-yl)butanamido)-3,3-dimethylbutanoyl)-4-hydroxy-N-(4-(4-methylthiazol-5-yl)benzyl)pyrrolidine-2-carboxamide] and Cc1ncsc1-c1ccc(CNC(=O)[C@@H]2C[C@@H](O)CN2C(=O)[C@@H](NC(=O)COCCc2ccc(COc3cc(F)c([C@@H]4c5[nH]c6ccccc6c5C[C@@H](C)N4CC(C)(C)F)c(F)c3)nc2)C(C)(C)C)cc1 [Example 158, (2S,4R)-1-((S)-2-(2-(2-(6-((3,5-Difluoro-4-((1R,3R)-2-(2-fluoro-2-methylpropyl)-3-methyl-2,3,4,9-tetrahydro-1H-pyrido[3,4-b]indol-1-yl)phenoxy)methyl)pyridin-3-yl)ethoxy)acetamido)-3,3-dimethylbutanoyl)-4-hydroxy-N-(4-(4-methylthiazol-5-yl)benzyl)pyrrolidine-2-carboxamide] are within 1.5-fold of each other in IC50: 1.2 nM for the first, 0.8 nM for the second.

Cc1ncsc1-c1ccc(CNC(=O)[C@@H]2C[C@@H](O)CN2C(=O)[C@@H](NC(=O)COCCCCC(=O)NCCOc2cc(F)c([C@@H]3c4[nH]c5ccccc5c4C[C@@H](C)N3CC(C)(C)F)c(F)c2)C(C)(C)C)cc1 [Example 142, (2S,4R)-1-((S)-2-(2-((5-((2-(3,5-Difluoro-4-((1R,3R)-2-(2-fluoro-2-methylpropyl)-3-methyl-2,3,4,9-tetrahydro-1H-pyrido[3,4-b]indol-1-yl)phenoxy)ethyl)amino)-5-oxopentyl)oxy)acetamido)-3,3-dimethylbutanoyl)-4-hydroxy-N-(4-(4-methylthiazol-5-yl)benzyl)pyrrolidine-2-carboxamide] and Cc1ncsc1-c1ccc(CNC(=O)[C@@H]2C[C@@H](O)CN2C(=O)[C@@H](NC(=O)COCCCCC(=O)N(C)CCOc2cc(F)c([C@@H]3c4[nH]c5ccccc5c4C[C@@H](C)N3CC(C)(C)F)c(F)c2)C(C)(C)C)cc1 [Example 143, (2S,4R)-1-((S)-2-(2-((5-((2-(3,5-Difluoro-4-((1R,3R)-2-(2-fluoro-2-methylpropyl)-3-methyl-2,3,4,9-tetrahydro-1H-pyrido[3,4-b]indol-1-yl)phenoxy)ethyl)(methyl)amino)-5-oxopentyl)oxy)acetamido)-3,3-dimethylbutanoyl)-4-hydroxy-N-(4-(4-methylthiazol-5-yl)benzyl)pyrrolidine-2-carboxamide] are the same in IC50: 1.1 nM for the first, 1.1 nM for the second.

Going from Cc1ncsc1-c1ccc(CNC(=O)[C@@H]2C[C@@H](O)CN2C(=O)[C@@H](NC(=O)COCc2ccc(C(=O)Nc3cc(F)c([C@@H]4c5[nH]c6ccccc6c5C[C@@H](C)N4CC(C)(C)F)c(F)c3)nc2)C(C)(C)C)cc1 [Example 144, N-(3,5-Difluoro-4-((1R,3R)-2-(2-fluoro-2-methylpropyl)-3-methyl-2,3,4,9-tetrahydro-1H-pyrido[3,4-b]indol-1-yl)phenyl)-5-((2-(((S)-1-((2S,4R)-4-hydroxy-2-((4-(4-methylthiazol-5-yl)benzyl)carbamoyl)pyrrolidin-1-yl)-3,3-dimethyl-1-oxobutan-2-yl)amino)-2-oxoethoxy)methyl)picolinamide] to Cc1ncsc1-c1ccc(CNC(=O)[C@@H]2C[C@@H](O)CN2C(=O)[C@@H](NC(=O)CNCc2ccc(COc3cc(F)c([C@@H]4c5[nH]c6ccccc6c5C[C@@H](C)N4CC(C)(C)F)c(F)c3)nc2)C(C)(C)C)cc1 [Example 146], the IC50 falls from 1.3 nM to 0.8 nM (1.6-fold).

Compared with Cc1ncsc1-c1ccc(CNC(=O)[C@@H]2C[C@@H](O)CN2C(=O)[C@@H](NC(=O)CNCCCCCCCCOc2cc(F)c([C@@H]3c4[nH]c5ccccc5c4C[C@@H](C)N3CC(C)(C)F)c(F)c2)C(C)(C)C)cc1 [Example 147, (2S,4R)-1-((S)-2-(2-((8-(3,5-Difluoro-4-((1R,3R)-2-(2-fluoro-2-methylpropyl)-3-methyl-2,3,4,9-tetrahydro-1H-pyrido[3,4-b]indol-1-yl)phenoxy)octyl)amino)acetamido)-3,3-dimethylbutanoyl)-4-hydroxy-N-(4-(4-methylthiazol-5-yl)benzyl)pyrrolidine-2-carboxamide], Cc1ncsc1-c1ccc([C@H](C)NC(=O)[C@@H]2C[C@@H](O)CN2C(=O)[C@@H](NC(=O)COCCOCCCCCOc2cc(F)c([C@@H]3c4[nH]c5ccccc5c4C[C@@H](C)N3CC(C)(C)F)c(F)c2)C(C)(C)C)cc1 [Example 156, (2S,4R)-1-((S)-2-(2-(2-((5-(3,5-Difluoro-4-((1R,3R)-2-(2-fluoro-2-methylpropyl)-3-methyl-2,3,4,9-tetrahydro-1H-pyrido[3,4-b]indol-1-yl)phenoxy)pentyl)oxy)ethoxy)acetamido)-3,3-dimethylbutanoyl)-4-hydroxy-N—((S)-1-(4-(4-methylthiazol-5-yl)phenyl)ethyl)pyrrolidine-2-carboxamide] is 1.7-fold lower in IC50: 1 nM for the first, 0.6 nM for the second.

Cc1ncsc1-c1ccc([C@H](C)NC(=O)[C@@H]2C[C@@H](O)CN2C(=O)[C@@H](NC(=O)COCCCOCCCOc2cc(F)c([C@@H]3c4[nH]c5ccccc5c4C[C@@H](C)N3CC(C)(C)F)c(F)c2)C(C)(C)C)cc1 [Example 152, (2S,4R)-1-((S)-2-(2-(3-(3-(3,5-Difluoro-4-((1R,3R)-2-(2-fluoro-2-methylpropyl)-3-methyl-2,3,4,9-tetrahydro-1H-pyrido[3,4-b]indol-1-yl)phenoxy)propoxy)propoxy)acetamido)-3,3-dimethylbutanoyl)-4-hydroxy-N—((S)-1-(4-(4-methylthiazol-5-yl)phenyl)ethyl)pyrrolidine-2-carboxamide] and Cc1ncsc1-c1ccc([C@H](C)NC(=O)[C@@H]2C[C@@H](O)CN2C(=O)[C@@H](NC(=O)COCCCCOCCCOc2cc(F)c([C@@H]3c4[nH]c5ccccc5c4C[C@@H](C)N3CC(C)(C)F)c(F)c2)C(C)(C)C)cc1 [Example 154, (2S,4R)-1-((S)-2-(2-(4-(3-(3,5-Difluoro-4-((1R,3R)-2-(2-fluoro-2-methylpropyl)-3-methyl-2,3,4,9-tetrahydro-1H-pyrido[3,4-b]indol-1-yl)phenoxy)propoxy)butoxy)acetamido)-3,3-dimethylbutanoyl)-4-hydroxy-N—((S)-1-(4-(4-methylthiazol-5-yl)phenyl)ethyl)pyrrolidine-2-carboxamide] are within 1.5-fold of each other in IC50: 0.5 nM for the first, 0.4 nM for the second.

Going from Cc1ncsc1-c1ccc([C@H](C)NC(=O)[C@@H]2C[C@@H](O)CN2C(=O)[C@@H](NC(=O)COCCOCCCCOc2cc(F)c([C@@H]3c4[nH]c5ccccc5c4C[C@@H](C)N3CC(C)(C)F)c(F)c2)C(C)(C)C)cc1 [Example 153, (2S,4R)-1-((S)-2-(2-(2-(4-(3,5-Difluoro-4-((1R,3R)-2-(2-fluoro-2-methylpropyl)-3-methyl-2,3,4,9-tetrahydro-1H-pyrido[3,4-b]indol-1-yl)phenoxy)butoxy)ethoxy)acetamido)-3,3-dimethylbutanoyl)-4-hydroxy-N—((S)-1-(4-(4-methylthiazol-5-yl)phenyl)ethyl)pyrrolidine-2-carboxamide] to Cc1ncsc1-c1ccc([C@H](C)NC(=O)[C@@H]2C[C@@H](O)CN2C(=O)[C@@H](NC(=O)COCCCCCOCCOc2cc(F)c([C@@H]3c4[nH]c5ccccc5c4C[C@@H](C)N3CC(C)(C)F)c(F)c2)C(C)(C)C)cc1 [Example 157, (2S,4R)-1-((S)-2-(2-((5-(2-(3,5-Difluoro-4-((1R,3R)-2-(2-fluoro-2-methylpropyl)-3-methyl-2,3,4,9-tetrahydro-1H-pyrido[3,4-b]indol-1-yl)phenoxy)ethoxy)pentyl)oxy)acetamido)-3,3-dimethylbutanoyl)-4-hydroxy-N—((S)-1-(4-(4-methylthiazol-5-yl)phenyl)ethyl)pyrrolidine-2-carboxamide], the IC50 rises from 0.3 nM to 0.8 nM (2.7-fold).
